Reference: PubChem BioAssay (NCI)
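GI50 is the concentration that inhibits growth by half. TGI: total growth inhibition.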

Columns and labels:
Assay in all cases: DTP human tumour cell line panel, 384-well format
SK-MEL-28 melanoma = system: SK-MEL-28 melanoma
NCI-H460 NSCLC = system: NCI-H460 NSCLC
NCI-H322M lung = system: NCI-H322M lung
A549 NSCLC = system: A549 NSCLC
DU-145 prostate = system: DU-145 prostate
U251 glioblastoma = system: U251 glioblastoma
OVCAR-3 ovarian = system: OVCAR-3 ovarian
RXF 393 renal = system: RXF 393 renal
HOP-92 NSCLC = system: HOP-92 NSCLC
SR leukemia = system: SR leukemia
T-47D breast = system: T-47D breast
KM12 colon = system: KM12 colon
HCT-116 colon = system: HCT-116 colon
NCI-H226 lung = system: NCI-H226 lung
MDA-MB-435 melanoma = system: MDA-MB-435 melanoma
RPMI-8226 leukemia = system: RPMI-8226 leukemia
HL-60(TB) leukemia = system: HL-60(TB) leukemia
OVCAR-5 ovarian = system: OVCAR-5 ovarian
UACC-257 melanoma = system: UACC-257 melanoma
LOX IMVI melanoma = system: LOX IMVI melanoma
NCI-H23 lung = system: NCI-H23 lung
A498 renal = system: A498 renal
HCC-2998 colon = system: HCC-2998 colon
IGROV1 ovarian = system: IGROV1 ovarian
786-0 renal = system: 786-0 renal
SF-295 CNS = system: SF-295 CNS
HOP-62 NSCLC = system: HOP-62 NSCLC
M14 melanoma = system: M14 melanoma
UACC-62 melanoma = system: UACC-62 melanoma
SNB-19 CNS = system: SNB-19 CNS
PC-3 prostate = system: PC-3 prostate
MCF7 breast = system: MCF7 breast
SN12C renal = system: SN12C renal
SK-MEL-2 melanoma = system: SK-MEL-2 melanoma
K-562 leukemia = system: K-562 leukemia
SF-539 CNS = system: SF-539 CNS
TK-10 renal = system: TK-10 renal
HT29 colon = system: HT29 colon
UO-31 renal = system: UO-31 renal
SK-OV-3 ovarian = system: SK-OV-3 ovarian
MDA-MB-468 breast = system: MDA-MB-468 breast
OVCAR-8 ovarian = system: OVCAR-8 ovarian
MOLT-4 leukemia = system: MOLT-4 leukemia
SF-268 CNS = system: SF-268 CNS
MDA-MB-231 breast = system: MDA-MB-231 breast
SW-620 colon = system: SW-620 colon
ACHN renal = system: ACHN renal
MALME-3M melanoma = system: MALME-3M melanoma
CCRF-CEM leukemia = system: CCRF-CEM leukemia
OVCAR-4 ovarian = system: OVCAR-4 ovarian
CAKI-1 renal = system: CAKI-1 renal
BT-549 breast = system: BT-549 breast
COLO 205 colon = system: COLO 205 colon
HCT-15 colon = system: HCT-15 colon
NCI/ADR-RES ovarian = system: NCI/ADR-RES ovarian
SK-MEL-5 melanoma = system: SK-MEL-5 melanoma

CCCC[C@@H](COC(=O)N(Cc1cccs1)Cc1cccs1)NC(=O)N[C@@H](CC(=O)OC)c1ccc2c(c1)OCO2
GI50 (SK-MEL-28 melanoma): > 100 µM | TGI (SK-MEL-28 melanoma): > 100 µM | GI50 (NCI-H460 NSCLC): > 100 µM | TGI (NCI-H460 NSCLC): > 100 µM | GI50 (NCI-H322M lung): > 100 µM | TGI (NCI-H322M lung): > 100 µM | GI50 (A549 NSCLC): > 100 µM | TGI (A549 NSCLC): > 100 µM | GI50 (DU-145 prostate): > 100 µM | TGI (DU-145 prostate): > 100 µM | GI50 (U251 glioblastoma): > 100 µM | TGI (U251 glioblastoma): > 100 µM | GI50 (OVCAR-3 ovarian): > 100 µM | TGI (OVCAR-3 ovarian): > 100 µM | GI50 (RXF 393 renal): 5.08 µM | TGI (RXF 393 renal): > 100 µM | GI50 (HOP-92 NSCLC): > 100 µM | TGI (HOP-92 NSCLC): > 100 µM | GI50 (SR leukemia): 6.03 µM | TGI (SR leukemia): > 100 µM | GI50 (T-47D breast): 50.5 µM | TGI (T-47D breast): > 100 µM | GI50 (KM12 colon): > 100 µM | TGI (KM12 colon): > 100 µM | GI50 (HCT-116 colon): 7.28 µM | TGI (HCT-116 colon): > 100 µM | GI50 (NCI-H226 lung): > 100 µM | TGI (NCI-H226 lung): > 100 µM | GI50 (MDA-MB-435 melanoma): > 100 µM | TGI (MDA-MB-435 melanoma): > 100 µM | GI50 (RPMI-8226 leukemia): 2.87 µM | TGI (RPMI-8226 leukemia): 6.14 µM | GI50 (HL-60(TB) leukemia): 14.6 µM | TGI (HL-60(TB) leukemia): > 100 µM | GI50 (OVCAR-5 ovarian): > 100 µM | TGI (OVCAR-5 ovarian): > 100 µM | GI50 (UACC-257 melanoma): > 100 µM | TGI (UACC-257 melanoma): > 100 µM | GI50 (LOX IMVI melanoma): > 100 µM | TGI (LOX IMVI melanoma): > 100 µM | GI50 (NCI-H23 lung): 90.7 µM | TGI (NCI-H23 lung): > 100 µM | GI50 (A498 renal): > 100 µM | TGI (A498 renal): > 100 µM | GI50 (HCC-2998 colon): > 100 µM | TGI (HCC-2998 colon): > 100 µM | GI50 (IGROV1 ovarian): > 100 µM | TGI (IGROV1 ovarian): > 100 µM | GI50 ([…]-0 renal): > 100 µM | TGI (786-0 renal): > 100 µM | GI50 (SF-295 CNS): > 100 µM | TGI (SF-295 CNS): > 100 µM | GI50 (HOP-62 NSCLC): > 100 µM | TGI (HOP-62 NSCLC): > 100 µM | GI50 (M14 melanoma): > 100 µM | TGI (M14 melanoma): > 100 µM | GI50 (UACC-62 melanoma): 65 µM | TGI (UACC-62 melanoma): > 100 µM | GI50 (SNB-19 CNS): > 100 µM | TGI (SNB-19 CNS): > 100 µM | GI50 (PC-3 prostate): > 100 µM | TGI (PC-3 prostate): > 100 µM | GI50 (MCF7 breast): > 100 µM | TGI (MCF7 breast): > 100 µM | GI50 (SN12C renal): > 100 µM | TGI (SN12C renal): > 100 µM | GI50 (SK-MEL-2 melanoma): > 100 µM | TGI (SK-MEL-2 melanoma): > 100 µM | GI50 (K-562 leukemia): > 100 µM | TGI (K-562 leukemia): > 100 µM | GI50 (SF-539 CNS): > 100 µM | TGI (SF-539 CNS): > 100 µM | GI50 (TK-10 renal): > 100 µM | TGI (TK-10 renal): > 100 µM | GI50 (HT29 colon): > 100 µM | TGI (HT29 colon): > 100 µM | GI50 (UO-31 renal): 53.2 µM | TGI (UO-31 renal): > 100 µM | GI50 (SK-OV-3 ovarian): > 100 µM | TGI (SK-OV-3 ovarian): > 100 µM | GI50 (MDA-MB-468 breast): > 100 µM | TGI (MDA-MB-468 breast): > 100 µM | GI50 (OVCAR-8 ovarian): > 100 µM | TGI (OVCAR-8 ovarian): > 100 µM | GI50 (MOLT-4 leukemia): 2.28 µM | TGI (MOLT-4 leukemia): 4.54 µM | GI50 (SF-268 CNS): > 100 µM | TGI (SF-268 CNS): > 100 µM | GI50 (MDA-MB-231 breast): > 100 µM | TGI (MDA-MB-231 breast): > 100 µM | GI50 (SW-620 colon): > 100 µM | TGI (SW-620 colon): > 100 µM | GI50 (ACHN renal): > 100 µM | TGI (ACHN renal): > 100 µM | GI50 (MALME-3M melanoma): > 100 µM | TGI (MALME-3M melanoma): > 100 µM | GI50 (CCRF-CEM leukemia): > 100 µM | TGI (CCRF-CEM leukemia): > 100 µM | GI50 (OVCAR-4 ovarian): > 100 µM | TGI (OVCAR-4 ovarian): > 100 µM | GI50 (CAKI-1 renal): > 100 µM | TGI (CAKI-1 renal): > 100 µM | GI50 (BT-549 breast): > 100 µM | TGI (BT-549 breast): > 100 µM | GI50 (COLO 205 colon): > 100 µM | TGI (COLO 205 colon): > 100 µM | GI50 (HCT-15 colon): > 100 µM | TGI (HCT-15 colon): > 100 µM | GI50 (NCI/ADR-RES ovarian): 55.5 µM | TGI (NCI/ADR-RES ovarian): > 100 µM | GI50 (SK-MEL-5 melanoma): 83 µM | TGI (SK-MEL-5 melanoma): > 100 µM
